Experimental findings from PubChem BioAssay AID2060494 (Molecular Pharmacology Branch, DTP, NCI, 2025) are described below.
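Further: spheroids exposed to the agents for seven days before readout; percent of vehicle control viability with DMSO wells as 100%.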

In the first assay the test system is 435261-313-R-J1-PDC complex spheroid viability. As to the kind of experiment: Anticancer human tumor 435261-313-R-J1-PDC patient-derived colon adenocarcinoma cell line growth inhibition [GQUAD]. To be noted: second compound 0.0316 µM; first compound 3.16 µM; active compounds read low. The essentials:
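Tumor cells were grown as complex spheroids with HUVEC endothelial cells and mesenchymal stem cells as stroma. G-quadruplex stabilizers were combined with targeted agents over half-log dilutions from near the clinical Cmax, or from 10 microM.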
With `Nc1ccn(C2OC(CO)C(O)C2(F)F)c(=O)n1` (configuration not stated) + CN(C)c1ccc(Nc2c3ccc(NC(=O)CCN4CCCC4)cc3nc3cc(NC(=O)CCN4CCCC4)ccc23)cc1, the viability, T/C was 77.2%.
Same read-out and setting: next, `O=c1[nH]cc(F)c(=O)[nH]1` + CN(C)c1ccc(Nc2c3ccc(NC(=O)CCN4CCCC4)cc3nc3cc(NC(=O)CCN4CCCC4)ccc23)cc1: 71.6%.

Still in this assay, the particulars now being: second compound 0.0316 µM; first compound 10 µM; active compounds read low.
Turning to `COc1cc(C2c3cc4c(cc3C(OC3OC5COC(C)OC5C(O)C3O)C3COC(=O)C23)OCO4)cc(OC)c1O` (configuration not stated) + CN(C)c1ccc(Nc2c3ccc(NC(=O)CCN4CCCC4)cc3nc3cc(NC(=O)CCN4CCCC4)ccc23)cc1, the viability, T/C is 61.2%.
The same measure, in the same setting: next, `COc1cccc2c1C(=O)c1c(O)c3c(c(O)c1C2=O)CC(O)(C(=O)CO)CC3OC1CC(N)C(O)C(C)O1` (configuration not stated) + CN(C)c1ccc(Nc2c3ccc(NC(=O)CCN4CCCC4)cc3nc3cc(NC(=O)CCN4CCCC4)ccc23)cc1: 5.25%; `Nc1ccn(C2OC(CO)C(O)C2(F)F)c(=O)n1` (configuration not stated) + CN(C)c1ccc(Nc2c3ccc(NC(=O)CCN4CCCC4)cc3nc3cc(NC(=O)CCN4CCCC4)ccc23)cc1: 60.9%; `O=c1[nH]cc(F)c(=O)[nH]1` + CN(C)c1ccc(Nc2c3ccc(NC(=O)CCN4CCCC4)cc3nc3cc(NC(=O)CCN4CCCC4)ccc23)cc1: 99.9%.

The same assay, now with this note: second compound 0.1 µM; first compound 0.0316 µM; active compounds read low.
Take `COc1cc(C2c3cc4c(cc3C(OC3OC5COC(C)OC5C(O)C3O)C3COC(=O)C23)OCO4)cc(OC)c1O` (configuration not stated) + CN(C)c1ccc(Nc2c3ccc(NC(=O)CCN4CCCC4)cc3nc3cc(NC(=O)CCN4CCCC4)ccc23)cc1: the viability, T/C is 81.8%.
With `COc1cccc2c1C(=O)c1c(O)c3c(c(O)c1C2=O)CC(O)(C(=O)CO)CC3OC1CC(N)C(O)C(C)O1` (configuration not stated) + CN(C)c1ccc(Nc2c3ccc(NC(=O)CCN4CCCC4)cc3nc3cc(NC(=O)CCN4CCCC4)ccc23)cc1, the viability, T/C is 73.4%.
With `Nc1ccn(C2OC(CO)C(O)C2(F)F)c(=O)n1` (configuration not stated) + CN(C)c1ccc(Nc2c3ccc(NC(=O)CCN4CCCC4)cc3nc3cc(NC(=O)CCN4CCCC4)ccc23)cc1, the viability, T/C is 85.3%.
The same measure, in the same setting: next, `O=c1[nH]cc(F)c(=O)[nH]1` + CN(C)c1ccc(Nc2c3ccc(NC(=O)CCN4CCCC4)cc3nc3cc(NC(=O)CCN4CCCC4)ccc23)cc1: 117%.

The same assay, now with this note: second compound 0.1 µM; first compound 0.1 µM; active compounds read low.
As for `COc1cc(C2c3cc4c(cc3C(OC3OC5COC(C)OC5C(O)C3O)C3COC(=O)C23)OCO4)cc(OC)c1O` (configuration not stated) + CN(C)c1ccc(Nc2c3ccc(NC(=O)CCN4CCCC4)cc3nc3cc(NC(=O)CCN4CCCC4)ccc23)cc1, the viability, T/C is 87.3%.
Regarding `COc1cccc2c1C(=O)c1c(O)c3c(c(O)c1C2=O)CC(O)(C(=O)CO)CC3OC1CC(N)C(O)C(C)O1` (configuration not stated) + CN(C)c1ccc(Nc2c3ccc(NC(=O)CCN4CCCC4)cc3nc3cc(NC(=O)CCN4CCCC4)ccc23)cc1, the viability, T/C was 87%.
For `Nc1ccn(C2OC(CO)C(O)C2(F)F)c(=O)n1` (configuration not stated) + CN(C)c1ccc(Nc2c3ccc(NC(=O)CCN4CCCC4)cc3nc3cc(NC(=O)CCN4CCCC4)ccc23)cc1, the viability, T/C was 103%.
Still for that read-out and setting: then `O=c1[nH]cc(F)c(=O)[nH]1` + CN(C)c1ccc(Nc2c3ccc(NC(=O)CCN4CCCC4)cc3nc3cc(NC(=O)CCN4CCCC4)ccc23)cc1, with 114%.

The assay is the same for the next values; noted with them: second compound 0.1 µM; first compound 0.316 µM; active compounds read low.
`COc1cc(C2c3cc4c(cc3C(OC3OC5COC(C)OC5C(O)C3O)C3COC(=O)C23)OCO4)cc(OC)c1O` (configuration not stated) + CN(C)c1ccc(Nc2c3ccc(NC(=O)CCN4CCCC4)cc3nc3cc(NC(=O)CCN4CCCC4)ccc23)cc1: the viability, T/C is 74.8%.
`COc1cccc2c1C(=O)c1c(O)c3c(c(O)c1C2=O)CC(O)(C(=O)CO)CC3OC1CC(N)C(O)C(C)O1` (configuration not stated) + CN(C)c1ccc(Nc2c3ccc(NC(=O)CCN4CCCC4)cc3nc3cc(NC(=O)CCN4CCCC4)ccc23)cc1: the viability, T/C is 78.7%.
Regarding `Nc1ccn(C2OC(CO)C(O)C2(F)F)c(=O)n1` (configuration not stated) + CN(C)c1ccc(Nc2c3ccc(NC(=O)CCN4CCCC4)cc3nc3cc(NC(=O)CCN4CCCC4)ccc23)cc1, the viability, T/C was 72.5%.
On the same count and under the same terms, next, `O=c1[nH]cc(F)c(=O)[nH]1` + CN(C)c1ccc(Nc2c3ccc(NC(=O)CCN4CCCC4)cc3nc3cc(NC(=O)CCN4CCCC4)ccc23)cc1: 126%.

Staying with this assay, now noted: second compound 0.1 µM; first compound 1 µM; active compounds read low.
As to `COc1cc(C2c3cc4c(cc3C(OC3OC5COC(C)OC5C(O)C3O)C3COC(=O)C23)OCO4)cc(OC)c1O` (configuration not stated) + CN(C)c1ccc(Nc2c3ccc(NC(=O)CCN4CCCC4)cc3nc3cc(NC(=O)CCN4CCCC4)ccc23)cc1, the viability, T/C is 80.7%.
On to `COc1cccc2c1C(=O)c1c(O)c3c(c(O)c1C2=O)CC(O)(C(=O)CO)CC3OC1CC(N)C(O)C(C)O1` (configuration not stated) + CN(C)c1ccc(Nc2c3ccc(NC(=O)CCN4CCCC4)cc3nc3cc(NC(=O)CCN4CCCC4)ccc23)cc1, for which the viability, T/C was 32.1%.
`Nc1ccn(C2OC(CO)C(O)C2(F)F)c(=O)n1` (configuration not stated) + CN(C)c1ccc(Nc2c3ccc(NC(=O)CCN4CCCC4)cc3nc3cc(NC(=O)CCN4CCCC4)ccc23)cc1: the viability, T/C was 84.5%.
On the same count and under the same terms, next, `O=c1[nH]cc(F)c(=O)[nH]1` + CN(C)c1ccc(Nc2c3ccc(NC(=O)CCN4CCCC4)cc3nc3cc(NC(=O)CCN4CCCC4)ccc23)cc1: 86.8%.

The same assay, now with this note: second compound 0.1 µM; first compound 3.16 µM; active compounds read low.
Consider `COc1cc(C2c3cc4c(cc3C(OC3OC5COC(C)OC5C(O)C3O)C3COC(=O)C23)OCO4)cc(OC)c1O` (configuration not stated) + CN(C)c1ccc(Nc2c3ccc(NC(=O)CCN4CCCC4)cc3nc3cc(NC(=O)CCN4CCCC4)ccc23)cc1, for which the viability, T/C is 82.1%.
Consider `COc1cccc2c1C(=O)c1c(O)c3c(c(O)c1C2=O)CC(O)(C(=O)CO)CC3OC1CC(N)C(O)C(C)O1` (configuration not stated) + CN(C)c1ccc(Nc2c3ccc(NC(=O)CCN4CCCC4)cc3nc3cc(NC(=O)CCN4CCCC4)ccc23)cc1, for which the viability, T/C is 3.52%.
Still for that read-out and setting: then `Nc1ccn(C2OC(CO)C(O)C2(F)F)c(=O)n1` (configuration not stated) + CN(C)c1ccc(Nc2c3ccc(NC(=O)CCN4CCCC4)cc3nc3cc(NC(=O)CCN4CCCC4)ccc23)cc1, with 70.4%; and `O=c1[nH]cc(F)c(=O)[nH]1` + CN(C)c1ccc(Nc2c3ccc(NC(=O)CCN4CCCC4)cc3nc3cc(NC(=O)CCN4CCCC4)ccc23)cc1, with 86.9%.

The assay is the same for the next values; noted with them: second compound 0.1 µM; first compound 10 µM; active compounds read low.
Take `COc1cc(C2c3cc4c(cc3C(OC3OC5COC(C)OC5C(O)C3O)C3COC(=O)C23)OCO4)cc(OC)c1O` (configuration not stated) + CN(C)c1ccc(Nc2c3ccc(NC(=O)CCN4CCCC4)cc3nc3cc(NC(=O)CCN4CCCC4)ccc23)cc1: the viability, T/C was 74.1%.
As for `COc1cccc2c1C(=O)c1c(O)c3c(c(O)c1C2=O)CC(O)(C(=O)CO)CC3OC1CC(N)C(O)C(C)O1` (configuration not stated) + CN(C)c1ccc(Nc2c3ccc(NC(=O)CCN4CCCC4)cc3nc3cc(NC(=O)CCN4CCCC4)ccc23)cc1, the viability, T/C was 4.61%.
On to `Nc1ccn(C2OC(CO)C(O)C2(F)F)c(=O)n1` (configuration not stated) + CN(C)c1ccc(Nc2c3ccc(NC(=O)CCN4CCCC4)cc3nc3cc(NC(=O)CCN4CCCC4)ccc23)cc1, for which the viability, T/C was 68.5%.
On the same count and under the same terms, next, `O=c1[nH]cc(F)c(=O)[nH]1` + CN(C)c1ccc(Nc2c3ccc(NC(=O)CCN4CCCC4)cc3nc3cc(NC(=O)CCN4CCCC4)ccc23)cc1: 78.6%.

The assay is the same for the next values; noted with them: second compound 0.316 µM; first compound 0.0316 µM; active compounds read low.
On to `COc1cc(C2c3cc4c(cc3C(OC3OC5COC(C)OC5C(O)C3O)C3COC(=O)C23)OCO4)cc(OC)c1O` (configuration not stated) + CN(C)c1ccc(Nc2c3ccc(NC(=O)CCN4CCCC4)cc3nc3cc(NC(=O)CCN4CCCC4)ccc23)cc1, for which the viability, T/C is 100%.
Same read-out and setting: then `COc1cccc2c1C(=O)c1c(O)c3c(c(O)c1C2=O)CC(O)(C(=O)CO)CC3OC1CC(N)C(O)C(C)O1` (configuration not stated) + CN(C)c1ccc(Nc2c3ccc(NC(=O)CCN4CCCC4)cc3nc3cc(NC(=O)CCN4CCCC4)ccc23)cc1, with 76.3%.
Still for that read-out and setting: next, `Nc1ccn(C2OC(CO)C(O)C2(F)F)c(=O)n1` (configuration not stated) + CN(C)c1ccc(Nc2c3ccc(NC(=O)CCN4CCCC4)cc3nc3cc(NC(=O)CCN4CCCC4)ccc23)cc1: 98.4%; `O=c1[nH]cc(F)c(=O)[nH]1` + CN(C)c1ccc(Nc2c3ccc(NC(=O)CCN4CCCC4)cc3nc3cc(NC(=O)CCN4CCCC4)ccc23)cc1: 104%.

The assay is the same for the next values; noted with them: second compound 0.316 µM; first compound 0.1 µM; active compounds read low.
In the case of `COc1cc(C2c3cc4c(cc3C(OC3OC5COC(C)OC5C(O)C3O)C3COC(=O)C23)OCO4)cc(OC)c1O` (configuration not stated) + CN(C)c1ccc(Nc2c3ccc(NC(=O)CCN4CCCC4)cc3nc3cc(NC(=O)CCN4CCCC4)ccc23)cc1, the viability, T/C is 95.2%.
Same read-out and setting: then `COc1cccc2c1C(=O)c1c(O)c3c(c(O)c1C2=O)CC(O)(C(=O)CO)CC3OC1CC(N)C(O)C(C)O1` (configuration not stated) + CN(C)c1ccc(Nc2c3ccc(NC(=O)CCN4CCCC4)cc3nc3cc(NC(=O)CCN4CCCC4)ccc23)cc1, with 79.1%; and `Nc1ccn(C2OC(CO)C(O)C2(F)F)c(=O)n1` (configuration not stated) + CN(C)c1ccc(Nc2c3ccc(NC(=O)CCN4CCCC4)cc3nc3cc(NC(=O)CCN4CCCC4)ccc23)cc1, with 94.8%; and `O=c1[nH]cc(F)c(=O)[nH]1` + CN(C)c1ccc(Nc2c3ccc(NC(=O)CCN4CCCC4)cc3nc3cc(NC(=O)CCN4CCCC4)ccc23)cc1, with 103%.

The same assay, now with this note: second compound 0.316 µM; first compound 0.316 µM; active compounds read low.
Turning to `COc1cc(C2c3cc4c(cc3C(OC3OC5COC(C)OC5C(O)C3O)C3COC(=O)C23)OCO4)cc(OC)c1O` (configuration not stated) + CN(C)c1ccc(Nc2c3ccc(NC(=O)CCN4CCCC4)cc3nc3cc(NC(=O)CCN4CCCC4)ccc23)cc1, the viability, T/C is 65.1%.
Same read-out and setting: then `COc1cccc2c1C(=O)c1c(O)c3c(c(O)c1C2=O)CC(O)(C(=O)CO)CC3OC1CC(N)C(O)C(C)O1` (configuration not stated) + CN(C)c1ccc(Nc2c3ccc(NC(=O)CCN4CCCC4)cc3nc3cc(NC(=O)CCN4CCCC4)ccc23)cc1, with 70.5%; and `Nc1ccn(C2OC(CO)C(O)C2(F)F)c(=O)n1` (configuration not stated) + CN(C)c1ccc(Nc2c3ccc(NC(=O)CCN4CCCC4)cc3nc3cc(NC(=O)CCN4CCCC4)ccc23)cc1, with 70.4%.
Same read-out and setting: next, `O=c1[nH]cc(F)c(=O)[nH]1` + CN(C)c1ccc(Nc2c3ccc(NC(=O)CCN4CCCC4)cc3nc3cc(NC(=O)CCN4CCCC4)ccc23)cc1: 87.4%.

A word on the viability, T/C: it is the result in the treated group divided by that in the control group, in per cent.
